# Results from patent US20040171566A1, “Antisense modulation of p38 mitogen activated protein kinase expression” (priority 1999, published 2004).
# In the oligonucleotide strings, read from the 5' end, every base follows the letter of its sugar. An asterisk marks phosphorothioate; unmarked linkages are phosphodiester. Other units and linkages are bracketed, terminal groups are in braces. A string of capitals states the bases alone. e = 2'-O-(2-methoxyethyl) (MOE); [5mC] = 5-methylcytosine; d = 2'-deoxy (DNA)
# Tests used:
# human p38β mRNA [1] = test: Inhibition of human p38β mRNA expression in HUVEC cells, Northern blot; format: cell-based
# human p38β mRNA [2] = test: Human p38β mRNA expression in T-24 cells
# human p38α mRNA [3] = test: Human p38α mRNA expression in T-24 cells; details: initial screen of human p38β oligonucleotides
# human p38α mRNA [4] = test: Effect of human p38β oligonucleotides on human p38α mRNA in HUVEC cells; format: cell-based
# Protocol: HUVEC cells were allowed to reach 75% confluency prior to use. The cells were washed twice with warm (37° C.) OPTI-MEM™ (Life Technologies). The cells were incubated in the presence of the appropriate culture medium, without the growth factors added, and the oligonucleotide formulated in LIPOFECTIN7 (Life Technologies), a 1:1 (w/w) liposome formulation of the cationic lipid N-[1-(2,3-dioleyloxy)propyl]-n,n,n-trimethylammonium chloride (DOTMA), and dioleoyl phosphotidylethanolamine (DOPE) in membrane filtered water. HUVEC cells were treated with 100 nM oligonucleotide in 10 μg/ml LIPOFECTIN7. Treatment was for four hours.
# Total mRNA was isolated using the RNEASY7 Mini Kit (Qiagen, Valencia, Calif.; similar kits from other manufacturers may also be used), separated on a 1% agarose gel, transferred to HYBOND™-N+ membrane (Amersham Pharmacia Biotech, Piscataway, N.J.), a positively charged nylon membrane, and probed. p38 MAPK probes were made using the Prime-A-Gene7 kit (Promega Corporation, Madison, Wis.), a random primer labeling kit, using mouse p38α or p38β cDNA as a template. […] The G3PDH probe was labeled with REDIVUE™ ^32P-dCTP (Amersham Pharmacia Biotech, Piscataway, N.J.) and Strip-EZ labelling kit (Ambion, Austin, Tex.). mRNA was quantitated by a PhosphoImager (Molecular Dynamics, Sunnyvale, Calif.). […]
# rat p38α mRNA [5] = test: Inhibition of rat p38α mRNA expression in rat cardiac myocytes, Northern blot; format: cell-based; details: 1 μM oligonucleotide, 24 hrs
# Protocol: Cells were grown as described in Zechner et al. and transfected with oligonucleotide as described in Example 2. Oligonucleotide concentration was 1 μM. mRNA was isolated 24 hrs after time zero and quantitated using Northern blotting as described in Example 2. An antisense oligonucleotide targeted to JNK-2 was used as a non-specific target control.
# rat p38α mRNA [6] = test: Inhibition of rat p38α mRNA expression in A-10 cells, Northern blot; format: cell-based; details: Rat A-10 cells, 200 nM oligonucleotide, 24 hours
# Protocol: Rat p38α antisense oligonucleotides were screened in Rat A-10 cells. A-10 cells (American Type Culture Collection, Manassas, Va.) were grown in high-glucose DMEM (Life Technologies, Gaithersburg, Md.) medium containing 10% fetal calf serum (FCS). Cells were treated with oligonucleotide as described in Example 2. Oligonucleotide concentration was 200 nM. mRNA was isolated 24 hours after time zero and quantitated by Northern blot as described in Example 2.
# [7] = 100 nM oligonucleotide in 10 μg/ml LIPOFECTIN, four hours, Northern blot
Substance,% mRNA EXPRESSION (human p38β mRNA [1]; [7]) [%],% mRNA Inhibition (human p38β mRNA [1]; [7]) [%],% mRNA EXPRESSION (human p38β mRNA [1]; dose 10 nM) [%],% mRNA Inhibition (human p38β mRNA [1]; dose 10 nM) [%],% mRNA EXPRESSION (human p38β mRNA [1]; dose 25 nM) [%],% mRNA Inhibition (human p38β mRNA [1]; dose 25 nM) [%],% mRNA EXPRESSION (human p38β mRNA [1]; dose 50 nM) [%],% mRNA Inhibition (human p38β mRNA [1]; dose 50 nM) [%],% mRNA EXPRESSION (human p38β mRNA [1]; dose 100 nM) [%],% mRNA Inhibition (human p38β mRNA [1]; dose 100 nM) [%],"% p38β mRNA Expression (human p38β mRNA [2]; dose 50 nM, relative to control oligonucleotide = 100%) [%]","% p38β mRNA Expression (human p38β mRNA [2]; dose 100 nM, relative to control oligonucleotide = 100%) [%]","% p38β mRNA Expression (human p38β mRNA [2]; dose 200 nM, relative to control oligonucleotide = 100%) [%]",% p38β mRNA Expression (human p38β mRNA [2]; initial screen of human p38β oligonucleotides) [%],% p38α mRNA EXPRESSION (human p38α mRNA [3]) [%],IC50 for p38α compared to p38β (human p38α mRNA [4]),effect on p38α mRNA expression (human p38α mRNA [4]),% p38α mRNA EXPRESSION (rat p38α mRNA [5]) [%],% p38α mRNA INHIBITION (rat p38α mRNA [5]) [%],% p38α mRNA EXPRESSION (rat p38α mRNA [6]) [%]
"TGCGGCACCTCCCACACGGT (chimeric, phosphorothioate, further chemistry not given here) [ISIS 17893]",4,96,37,63,18,82,16,84,19,81,28,27,16,31,61,approximately 4 fold,showed an effect on p38α mRNA expression,–,–,–
GoGoCoCoAsGsAsGsAsCsTsGsAsAsTsGoToAoGoT (antisense eGeGe[5mC]e[5mC]eA*dG*dA*dG*dA*d[5mC]*dT*dG*dA*dA*dT*eGeTeAeGeT) [ISIS 21846],–,–,–,–,–,–,–,–,–,–,–,–,–,–,–,–,–,41,59,8
